Earlier results as cited in patent publication US20160264934A1, “METHODS FOR MODULATING AND ASSAYING m6A IN STEM CELL POPULATIONS” (THE GENERAL HOSPITAL CORPORATION, priority 2015, published 2016).

Molecular target: ALKBH5 (Homo sapiens, UniProt Q6P6C2)
Conditions: HPLC-based assays

Sequence of ALKBH5 (Q6P6C2 whole entry, species assumed): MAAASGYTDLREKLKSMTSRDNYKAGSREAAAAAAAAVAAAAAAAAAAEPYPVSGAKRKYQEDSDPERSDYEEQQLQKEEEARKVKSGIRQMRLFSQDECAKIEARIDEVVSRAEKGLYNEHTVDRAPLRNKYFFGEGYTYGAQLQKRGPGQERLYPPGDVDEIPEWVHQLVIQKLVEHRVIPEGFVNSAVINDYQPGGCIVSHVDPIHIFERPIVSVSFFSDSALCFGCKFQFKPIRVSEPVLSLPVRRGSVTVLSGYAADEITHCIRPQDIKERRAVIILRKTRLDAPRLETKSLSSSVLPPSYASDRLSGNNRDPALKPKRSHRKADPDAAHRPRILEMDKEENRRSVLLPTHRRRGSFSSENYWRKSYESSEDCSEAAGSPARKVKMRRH

inhibition of ALKBH5: no inhibition
SMILES: Cc1ccc(Cl)c(Nc2ccccc2C(=O)O)c1Cl [meclofenamic acid]
